Data as given in patent publication US20230391868A1, “COMPOSITIONS FOR AND METHODS OF TREATING CANCER” (The George Washington University, priority 2022, published 2023).

B1: IFNγ: interferon gamma, cytokine used to stimulate Cd47 upregulation (protein, UniProt P01580 23-155, looked up)
Interferon gamma: HGTVIESLESLNNYFNSSGIDVEEKSLFLDIWRNWQKDGDMKILQSQIISFYLRLFEVLKDNQAISNNISVIESHLITTFFSNSKAKKDAFMSIAKFEVNNPQVQRQAFNELIRVVHQLLPESSLRKRKRSRC

What was measured:
[1] = Laengle J, et al. (2020); cited from earlier work
[2] = tested on: A31A7 macrophages and BMDMs; assay: Macrophage M1/M2 marker gene expression by qRT-PCR; format: cell-based, mouse; conditions: A31A7; qRT-PCR (FIG. 7D-FIG. 7E)
Procedure: Bone marrow-derived macrophages were isolated from the femurs and tibias of wild-type C57/Bl6, HDAC6 knockout (C57BL/6J-Hdac6em2Lutzy/J, 029318, Jackson Laboratory), or UBC-GFP (C57BL/6-Tg(UBC-GFP)30Scha/J, 004353, Jackson Laboratory). Isolated bone marrow cells were cultured in RPMI 1640 complete medium with 10% FBS, 1% NEAA, and 1% penicillin-streptomycin in 5% CO2 at 37° C. Medium was supplemented with murine recombinant M-CSF (20 ng/mL, 576404, Biolegend) to differentiate monocytes into macrophages. Three days after bone marrow isolation, undifferentiated and floating cells were washed with PBS and replaced with fresh RPMI media. […]
(§1) Macrophages were polarized to M1-like phenotype using 50 ng/mL of interferon gamma (IFNγ, 575306, Biolegend) and 100 ng/mL of bacterial lipopolysaccharide (LPS, L2880, Sigma Aldrich, St. Louis, MO) for 24 hours. To polarize macrophages towards the M2-like phenotype, macrophages were stimulated with 20 ng/mL of IL-4 (214-14, PeproTech) and 20 ng/mL of IL-13 (575904, Biolegend). THP1 monocytes were treated with 5 ng/mL of phorbol 12-myristate 13-acetate (PMA) to induce differentiation into macrophages. Once converted to macrophages, media was replaced to remove PMA prior to treatment and/or polarization. Polarization towards M1 and M2 phenotypes was performed with respective recombinant human cytokines from PeproTech: 50 ng/mL of IFNγ (300-02), 20 ng/mL IL-4 (200-04), and 20 ng/mL IL-13 (200-13). 100 ng/mL LPS was also used to polarize toward the M1 phenotype. 3. In vivo Studies.
(§2) qRT-PCR: Total RNA was extracted from cells using the Trizol reagent according to manufacturer's instructions (ThermoFisher Scientific, 15596018). Samples were then processed immediately or stored at −80° C. RNA was quantified using a NanoDrop One Spectrophotometer (ThermoFisher Scientific). The 260/280 ratios were routinely over 1.8. Sample cDNA was produced using the iScript cDNA synthesis kit (Bio-Rad, 1708891). Target mRNA was quantified using MyIQ single-color real-time PCR detection system from Bio-Rad (Bio-Rad, Hercules, CA) and iQ SYBR green Supermix (Bio-Rad, 1708882). The following primers were synthesized by Invitrogen (Waltham, MA) with sequences designed by Origene (Rockville, MD): mouse R-actin (MP200232), mouse Nos2 (MP208933), mouse MRC1 (MP207800), human R-actin (HP204660), human IL-1β (HP200544), human MRC1 (HP206121), human NOS2 (HP200591), human CD209 (HP214086), mouse SIRPα (MP215450), mouse LRP1 (MP207604), human LRP1 (HP206040), mouse MFGE8 (MP208190), human MFGE8 (HP225757), mouse CD36 (MP201923), human CD36 (HP200058), and mouse CD47 (MP201932). Primers for mouse ARG-1 (PPM31770C) and human SIRPα (QT01031051) were purchased from Qiagen (Hilden, Germany). Human CD47 primer sequences were obtained from Sudo T, et al and are 5′-[…]-3′ (sense) (SEQ ID NO:01) and 5′-[…]-3′ (antisense) (SEQ ID NO:02) (Sudo T, et al. (2017) Oncol. Lett. 14:801-809). Human CD86 primer sequences are 5′-[…]-3′ (sense) (SEQ ID NO:03) and 5′-[…]-3′ (antisense) (SEQ ID NO:04). Mouse CD80 sequences are 5′-[…]-3′ (sense) (SEQ ID NO:05) and 5′-[…]-3′ (antisense) (SEQ ID NO:06). Cycling conditions were set as per manufacturer's instructions. Single product amplification was confirmed by melting curve analysis. Quantification is expressed in arbitrary units and target mRNA levels were normalized to R-actin expression.

THP1-derived macrophages = assay: M1/M2 marker gene expression in THP1-derived macrophages by qRT-PCR; format: cell-based, human; conditions: gene expression (FIG. 7H)
Procedure: as §1
as §2, with “expression. […]” for “expression.”

[3] = tested on: human THP1-derived macrophages; assay: Pro-phagocytic signal gene expression in THP1-derived macrophages; format: cell-based; conditions: human THP1-derived macrophages (FIG. 8E); corroboration of NextA increase
Procedure: as §1
(§3) qRT-PCR: Total RNA was extracted from cells using the Trizol reagent according to manufacturer's instructions (ThermoFisher Scientific, 15596018). Samples were then processed immediately or stored at −80° C. RNA was quantified using a NanoDrop One Spectrophotometer (ThermoFisher Scientific). The 260/280 ratios were routinely over 1.8. Sample cDNA was produced using the iScript cDNA synthesis kit (Bio-Rad, 1708891). Target mRNA was quantified using MyIQ single-color real-time PCR detection system from Bio-Rad (Bio-Rad, Hercules, CA) and iQ SYBR green Supermix (Bio-Rad, 1708882). The following primers were synthesized by Invitrogen (Waltham, MA) with sequences designed by Origene (Rockville, MD): mouse R-actin (MP200232), mouse Nos2 (MP208933), mouse MRC1 (MP207800), human R-actin (HP204660), human IL-1β (HP200544), human MRC1 (HP206121), human NOS2 (HP200591), human CD209 (HP214086), mouse SIRPα (MP215450), mouse LRP1 (MP207604), human LRP1 (HP206040), mouse MFGE8 (MP208190), human MFGE8 (HP225757), mouse CD36 (MP201923), human CD36 (HP200058), and mouse CD47 (MP201932). […] Quantification is expressed in arbitrary units and target mRNA levels were normalized to R-actin expression.

SM1 melanoma cells = assay: Cd47 mRNA upon IFNγ stimulation in SM1 cells; format: cell-based, mouse
Procedure: as §3, with “(MP201932). Primers for mouse ARG-1 (PPM31770C) and human SIRPα (QT01031051) were purchased from Qiagen (Hilden, Germany).” for “(MP201932).”
(§4) Although the mechanism by which IFNγ drives CD47 upregulation is unclear, IFNγ expression correlates to CD47 expression in skin cutaneous melanoma (Ye Z H, et al. (2021) Transl. Oncol. 14:101162). The kinetics of Cd47 mRNA in SM1 and B16 cells upon IFNγ stimulation (100 ng/mL) were evaluated and these mouse melanoma models were determined to have different kinetics (FIG. 9A-FIG. 9B). It was determined that 12 hours was a time point for both models to sustain the IFNγ-mediated upregulation. In FIG. 9B, the role of HDAC6 inhibitors NextA and Tubastatin A in abrogating Cd47 upregulation upon stimulation with IFNγ for 12 hours was evaluated.

B16 melanoma cells = assay: Cd47 mRNA upon IFNγ stimulation in B16 cells; format: cell-based, mouse
Procedure: as §3, with “(MP201932). Primers for mouse ARG-1 (PPM31770C) and human SIRPα (QT01031051) were purchased from Qiagen (Hilden, Germany).” for “(MP201932).”
as §4

[4] = molecular target: mouse CD47 on the surface of SM1 melanoma cells (mouse) (UniProt Q61735); assay: flow cytometry titration on SM1 cells; free CD47 read with PE anti-mouse CD47 (miap301), bound antibody read with PE anti-rat IgG2a
[5] = IFNγ stimulation (100 ng/mL) for 12 hours

Chain of UniProt Q61735 (Q61735 19-303): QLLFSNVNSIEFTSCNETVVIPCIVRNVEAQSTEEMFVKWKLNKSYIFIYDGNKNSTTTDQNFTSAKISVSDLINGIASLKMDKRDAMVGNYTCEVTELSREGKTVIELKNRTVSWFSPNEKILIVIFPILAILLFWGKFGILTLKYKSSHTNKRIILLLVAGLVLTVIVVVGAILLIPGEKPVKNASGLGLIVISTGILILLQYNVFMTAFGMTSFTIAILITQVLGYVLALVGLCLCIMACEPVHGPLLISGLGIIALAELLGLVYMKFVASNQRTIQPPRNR

Molecule	Arg1 in M2 polarized macrophages [2]	Cd80 expression in M1-like macrophages [2]	effects on THP1-derived macrophage M2-like polarization (THP1-derived macrophages)	expression of pro-phagocytic signals [3]	other results
O=C(CCCCCCC(=O)Nc1ccccc1)NO [SAHA, suberoylanilide hydroxamic acid]					trastuzumab-mediated phagocytosis [1]: enhance trastuzumab-mediated phagocytosis
O=C(CCCCCCC(=O)Nc1ccc([C@H]2O[C@@H](CSc3nc(-c4ccccc4)c(-c4ccccc4)o3)C[C@@H](c3ccc(CO)cc3)O2)cc1)NO [Tubacin]	downregulated	upregulated	verified	corroborated	
CN1CCc2c(c3ccccc3n2Cc2ccc(C(=O)NO)cc2)C1 [Tubastatin A]	downregulated	upregulated	verified	corroborated	IFNγ-driven Cd47 upregulation at the transcriptional level (SM1 melanoma cells; IFNγ for 12 hours): repressed these effects; IFNγ-driven Cd47 upregulation at the transcriptional level (B16 melanoma cells; IFNγ for 12 hours): repressed these effects
anti-mouse CD47 (clone miap301, 127502, Biolegend) (antibody)					lowest antibody concentration that provided maximum surface CD47 blockade and epitope saturation [4]: 25 µg/mL
B1					Cd47 upregulation (SM1 melanoma cells; [5]): 1.6 fold; Cd47 upregulation (B16 melanoma cells; [5]): 10 fold
